Like-named read-outs stand apart in the source and are kept apart here.
Columns and labels:
[1] = system: E. coli DH5α/pLBII-CTX-M15; experiment: Broth microdilution MIC assay, engineered strain producing CTX-M15; format: cell-based, Escherichia coli; details: Escherichia coli, read-out: E. coli DH5α/pLBII-CTX-M15 Microbiological Activity (MIC)
Experimental: (§1) To determine the ability of test compounds to potentiate the inhibition of the growth of bacterial strains, classic cell based broth microdilution MIC assays were employed. MIC assays are performed according to CLSI methods except where otherwise noted (CLSI, 2011 and CLSI, 2009). The reference strain S. aureus ATCC 29213 and the hyper-permeable E. coli 901C were used to determine the ability of the PBP compounds to inhibit bacterial growth. Briefly, cryo-preserved bacterial cultures of clinical strains are streaked for isolation on appropriate agar medium, in this case Mueller Hinton II agar. Following incubation to allow formation of colonies these plates are sealed with parafilm and stored refrigerated for up to two weeks. For preparation of assay inocula and to ensure low variability, at least 5 colonies are picked from the agar plates with an inoculating loop and aseptically transferred to a culture tube containing 3 mL of Mueller-Hinton Broth (supplemented with divalent cations to required levels based on Manufacturers' certification). The broth culture is grown for 3-5 hours at 37° C. with shaking at 200 rpm. Meanwhile, 2-fold serial dilutions of test compounds are conducted in a 96 well plate with a final volume of 75 μL per well at 2-fold the final desired concentration. After the dilution plates are set up the growing cultures are then diluted in a cuvette containing MH II broth and the optical density is measured at 600 nm. Inocula are diluted such that 75 μL of this culture in Mueller-Hinton Broth results in a starting bacterial concentration of 5×10^5 CFU/mL when added to the dilution plates. The plates are incubated 16-20 hours at 37° C. The MIC is read visually as the lowest concentration well with no bacterial growth.
(§2) To determine if test compounds were affected by CTX-M15, the most abundant extended spectrum β-lactamase in clinical settings worldwide, the inhibition of the growth of an engineered strain of Escherichia coli harboring CTX-M15 was tested. This strain was constructed by cloning the gene encoding CTX-M15 into the NdeI and BamHI restriction endonuclease sites of plasmid pLBII, placing the gene(s) under the control of the Lac promoter. The constructed expression plasmid for CTX-M15 was used to transform competent E. coli DH5a cells to make the engineered strain, including an empty pLBII vector control strain. The classic cell based broth microdilution MIC assay was employed as described above with the addition of control antibiotics, known to be degraded by β-lactamases (Ceftazidime, piperacillin and piperacillin+tazobactam).

E. coli DH5α/pLBII = experiment: Broth microdilution MIC assay, empty vector control strain; format: cell-based; details: Escherichia coli, read-out: E. coli DH5α/pLBII Microbiological Activity (MIC)
Experimental: as §1, §2

S. aureus ATCC 29213 = experiment: Broth microdilution MIC assay; format: cell-based; details: Staphylococcus aureus
Experimental: as §1

[2] = system: hyper-permeable E. coli 901C; experiment: Broth microdilution MIC assay; format: cell-based; details: Escherichia coli, read-out: E. coli 901C MIC
Experimental: as §1

[3] = target: T1, PBP3 from Escherichia coli (Escherichia coli, UniProt P0AD68); experiment: Fluorescence polarization competition binding assay with Bocillin-FL
T1 construct: made in house
Description: To determine the ability of boronic acid-based test PBP inhibitors to bind Penicillin Binding Proteins (PBPs), Bocillin-FL (fluorescently-labeled penicillin V; ThermoFisher Scientific) was used in a fluorescence polarization (FP) competition binding assay to assess boronic acid PBP inhibitor binding to PBP3 from Escherichia coli. PBP3 from Escherichia coli was cloned and purified as described previously (King, D. T, et al., ACS Infectious Diseases 2015, 1, 175-184). To establish assay conditions for competition binding, an enzyme titration/saturation binding experiment was performed. Bocillin-FL was prepared at […] in a buffer comprised of 50 mM Hepes (pH 8.0), 300 mM NaCl and 5% (v/v) glycerol. Saturation binding was performed by mixing […] of PBP3 ranging in concentrations from […] with 40 μl of the 0.2 μM Bocillin-FL solution, in individual wells of a black 384-well microplate. FP was measured immediately upon addition of PBP3 (Ex, Em), using a Cytation3 (BioTek) microplate reader and measured continuously for 60 minutes. […] The competition binding assay was validated using the beta-lactam ampicillin, with Bocillin-FL at a final concentration of 0.1 μM, PBP3 at a final concentration of 1.5 μM and concentrations of ampicillin from 0-1000 μM. PBP3 was incubated with ampicillin at different concentrations in a black 384-well microplate (Corning) for 30 minutes, then Bocillin-FL added and the FP immediately measured for 60 minutes. […] Binding assays for boronic acid PBP inhibitors were performed in an identical fashion. Representative results are shown in Table 3, where A represents a potency of >500 μM, B represents a potency between 30 μM and 500 μM inclusive, and C represents a potency of <30 μM. NT=Not Tested.

[4] = ATCC29213, broth microdilution, 16-20 hours at 37° C., read-out: S. aureus 29213 MIC

T1 sequence (P0AD68 1-577): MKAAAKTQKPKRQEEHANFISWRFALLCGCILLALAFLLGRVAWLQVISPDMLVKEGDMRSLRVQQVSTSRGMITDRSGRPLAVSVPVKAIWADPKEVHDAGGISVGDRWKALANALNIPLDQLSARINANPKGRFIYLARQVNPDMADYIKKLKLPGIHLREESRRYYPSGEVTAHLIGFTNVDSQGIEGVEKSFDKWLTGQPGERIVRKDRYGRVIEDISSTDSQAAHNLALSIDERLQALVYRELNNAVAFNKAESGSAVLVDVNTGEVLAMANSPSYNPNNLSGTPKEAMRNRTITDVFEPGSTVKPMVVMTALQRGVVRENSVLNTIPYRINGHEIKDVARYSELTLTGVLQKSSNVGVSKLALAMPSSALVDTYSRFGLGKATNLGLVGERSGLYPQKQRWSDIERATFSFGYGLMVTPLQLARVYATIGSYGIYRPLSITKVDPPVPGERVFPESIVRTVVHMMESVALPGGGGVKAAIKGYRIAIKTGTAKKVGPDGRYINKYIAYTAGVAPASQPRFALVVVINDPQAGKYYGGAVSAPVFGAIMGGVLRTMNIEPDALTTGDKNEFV

| SMILES | MIC [1] [µg/mL] | MIC (E. coli DH5α/pLBII) [µg/mL] | MIC (S. aureus ATCC 29213; [4]) [µg/mL] | MIC [2] [µg/mL] | EC50 [3] [µM] | MIC (S. aureus ATCC 29213; ATCC29213, read-out: S. aureus 29213 MIC) [µg/mL] |
| --- | --- | --- | --- | --- | --- | --- |
| CCN1CCN(C(=O)N[C@H](CO)C(=O)N[C@H]2Cc3cccc(C(=O)O)c3OB2O)C(=O)C1=O [Example 35, (R)-3-((R)-2-(4-Ethyl-2,3-dioxopiperazine-1-carboxamido)-3-hydroxy-propanamido)-2-hydroxy-3,4-dihydro-2H-benzo[e][1,2]oxaborinine-8-carboxylic acid] | 32 to 64 | 32 to 64 | > 128 | < 64 |  |  |
| CCN1CCN(C(=O)N[C@H](Cc2c[nH]cn2)C(=O)N[C@H]2Cc3cccc(C(=O)O)c3OB2O)C(=O)C1=O [Example 40, (R)-3-((R)-2-(4-ethyl-2,3-dioxopiperazine-1-carboxamido)-3-(1H-imidazol-4-yl)propanamido)-2-hydroxy-3,4-dihydro-2H-benzo[e][1,2]oxaborinine-8-carboxylic acid] | 128 to 256 | 128 to 256 | > 128 | 64 to 128 |  |  |
| COc1cc(C(=O)NC(C(=O)N[C@H]2Cc3cccc(C(=O)O)c3OB2O)c2csc(N)n2)ccn1 (stereo partly drawn) [Example 41, (3R)-3-(2-(2-aminothiazol-4-yl)-2-(2-methoxyisonicotinamido)acetamido)-2-hydroxy-3,4-dihydro-2H-benzo[e][1,2]oxaborinine-8-carboxylic acid] | > 512 | > 512 | 64 to 128 | < 64 |  |  |
| Cn1ccc(C(=O)NC(C(=O)N[C@H]2Cc3cccc(C(=O)O)c3OB2O)c2csc(N)n2)cc1=O (stereo partly drawn) [Example 42, (3R)-3-(2-(2-aminothiazol-4-yl)-2-(1-methyl-2-oxo-1,2-dihydropyridine-4-carboxamido)acetamido)-2-hydroxy-3,4-dihydro-2H-benzo[e][1,2]oxaborinine-8-carboxylic acid] | 32 to 64 | 32 to 64 | 64 to 128 | < 64 |  |  |
| COc1ccc(C(=O)NC(C(=O)N[C@H]2Cc3cccc(C(=O)O)c3OB2O)c2csc(N)n2)c(=O)[nH]1 (stereo partly drawn) [Example 46, (3R)-3-(2-(2-aminothiazol-4-yl)-2-(6-methoxy-2-oxo-1,2-dihydropyridine-3-carboxamido)acetamido)-2-hydroxy-3,4-dihydro-2H-benzo[e][1,2]oxaborinine-8-carboxylic acid] | 128 to 256 | 128 to 256 | > 128 | < 64 |  |  |
| CCCN1CCN(C(=O)NC(C(=O)N[C@H]2Cc3cccc(C(=O)O)c3OB2O)c2csc(N)n2)C(=O)C1=O (stereo partly drawn) [Example 51, (3R)-3-(2-(2-aminothiazol-4-yl)-2-(2,3-dioxo-4-propylpiperazine-1-carboxamido)acetamido)-2-hydroxy-3,4-dihydro-2H-benzo[e][1,2]oxaborinine-8-carboxylic acid] | 8 to 16 | 8 to 16 | 64 to 128 | < 64 |  |  |
| Nc1nc(C(NC(=O)N2CCN(CCCF)C(=O)C2=O)C(=O)N[C@H]2Cc3cccc(C(=O)O)c3OB2O)cs1 (stereo partly drawn) [Example 54, (3R)-3-(2-(2-aminothiazol-4-yl)-2-(4-(3-fluoropropyl)-2,3-dioxopiperazine-1-carboxamido)acetamido)-2-hydroxy-3,4-dihydro-2H-benzo[e][1,2]oxaborinine-8-carboxylic acid] | 8 to 16 | 8 to 16 | 64 to 128 | < 64 |  |  |
| CCCN1CCN(C(=O)NC(C(=O)N[C@H]2Cc3cccc(C(=O)O)c3OB2O)c2csc(NC(=O)OCc3ccccc3)n2)C(=O)C1=O (stereo partly drawn) [Example 56, (3R)-3-(2-(2-(((benzyloxy)carbonyl)amino)thiazol-4-yl)-2-(2,3-dioxo-4-propylpiperazine-1-carboxamido)acetamido)-2-hydroxy-3,4-dihydro-2H-benzo[e][1,2]oxaborinine-8-carboxylic acid] | > 512 | > 512 | 64 to 128 | < 64 |  |  |
| CCN1CCN(C(=O)NC(C(=O)N[C@H]2Cc3cccc(C(=O)O)c3OB2O)c2csc(NCCN)n2)C(=O)C1=O (stereo partly drawn) [Example 63, (3R)-3-(2-(2-((2-aminoethyl)amino)thiazol-4-yl)-2-(4-ethyl-2,3-dioxopiperazine-1-carboxamido)acetamido)-2-hydroxy-3,4-dihydro-2H-benzo[e][1,2]oxaborinine-8-carboxylic acid] |  |  | 64 to 128 | < 64 | 30 to 500 |  |
| CCN1C(=O)CN(C(=O)NC(C(=O)N[C@H]2Cc3cccc(C(=O)O)c3OB2O)c2csc(N)n2)CC1=O (stereo partly drawn) [Example 64, (3R)-3-(2-(2-aminothiazol-4-yl)-2-(4-ethyl-3,5-dioxopiperazine-1-carboxamido)acetamido)-2-hydroxy-3,4-dihydro-2H-benzo[e][1,2]oxaborinine-8-carboxylic acid] | 128 to 256 | 128 to 256 | > 128 | < 64 |  |  |
| Nc1nc(C(NC(=O)C2CCCC(=O)N2)C(=O)N[C@H]2Cc3cccc(C(=O)O)c3OB2O)cs1 (stereo partly drawn) [Example 68, (3R)-3-(2-(2-aminothiazol-4-yl)-2-(6-oxopiperidine-2-carboxamido)acetamido)-2-hydroxy-3,4-dihydro-2H-benzo[e][1,2]oxaborinine-8-carboxylic acid] | 128 to 256 | 128 to 256 | > 128 | < 64 |  |  |
| Nc1nc(C(NC(=O)N2CCN(CC(F)F)C(=O)C2=O)C(=O)N[C@H]2Cc3cccc(C(=O)O)c3OB2O)cs1 (stereo partly drawn) [Example 69, (3R)-3-(2-(2-aminothiazol-4-yl)-2-(4-(2,2-difluoroethyl)-2,3-dioxopiperazine-1-carboxamido)acetamido)-2-hydroxy-3,4-dihydro-2H-benzo[e][1,2]oxaborinine-8-carboxylic acid] | 8 to 16 | 8 to 16 | 64 to 128 | < 64 |  |  |
| CCN1CCN(C(=O)N[C@@H](C(=O)N[C@H]2Cc3cccc(C(=O)O)c3OB2O)[C@H](O)CO)C(=O)C1=O [Example 74, (R)-3-((2R,3S)-2-(4-ethyl-2,3-dioxopiperazine-1-carboxamido)-3,4-dihydroxybutanamido)-2-hydroxy-3,4-dihydro-2H-benzo[e][1,2]oxaborinine-8-carboxylic acid] | 32 to 64 | 32 to 64 | > 128 | < 64 |  |  |
| Nc1nc(C(NC(=O)N2CCCN(O)S2(=O)=O)C(=O)N[C@H]2Cc3cccc(C(=O)O)c3OB2O)cs1 (stereo partly drawn) [Example 77, (3R)-3-(2-(2-aminothiazol-4-yl)-2-(6-hydroxy-1,1-dioxido-1,2,6-thiadiazinane-2-carboxamido)acetamido)-2-hydroxy-3,4-dihydro-2H-benzo[e][1,2]oxaborinine-8-carboxylic acid] | 32 to 64 | 32 to 64 |  | < 64 |  | > 128 |
